{"source": "patent US8680272B2", "about": "“3-arylethynyl substituted quinazolinone compounds” (Council of Scientific & Industrial Research, priority 2011, dated 2014)", "key": {"HCT-15": {"tested_on": "HCT-15", "assay": "Anticancer activity, SRB assay, colon cell line HCT-15", "format": "cell-based", "conditions": "Homo sapiens; Colon HCT-15; 48 h continuous drug exposure; read-out: Growth Inhibition GI50", "protocol": "(§1) Some of biological activity studies were carried out at the National Cancer Institute (NCI), Maryland, USA.\n(§2) The compounds were evaluated for anticancer activity against sixty human cancer cells derived from nine cancer types (leukemia cell line, non-small-cell lung cell line, colon cell line, CNS cell line, melanoma cell line, ovarian cell line, prostate cell line, renal cell line and breast cancer cell line) as shown in Table 1. For each compound, dose response curves for each cell line were measured at a minimum of five concentrations at 10 fold dilutions. A protocol of 48 h continuous drug exposure was used and a sulforhodamine B (SRB) protein assay was used to estimate cell viability or growth."}, "[1]": {"tested_on": "seven colon cancer cell line (COLO 205, HCC-2998, HCT-116, HCT-15, HT29, KM12 and SW-620)", "assay": "Anticancer activity, SRB assay, colon panel", "format": "cell-based, human", "protocol": "as §1, §2"}, "UACC-257": {"tested_on": "UACC-257", "assay": "Anticancer activity, SRB assay, melanoma cell line UACC-257", "format": "cell-based", "conditions": "Homo sapiens; Melanoma UACC-257; 48 h continuous drug exposure; read-out: Growth Inhibition GI50", "protocol": "as §1, §2"}, "NCI-H522": {"tested_on": "NCI-H522", "assay": "Anticancer activity, SRB assay, non-small lung cell line NCI-H522", "format": "cell-based, human", "conditions": "Non-small lung NCl-H522; 48 h continuous drug exposure; —^b means GI50 values not attained at the concentrations used", "protocol": "as §1, §2"}, "SNB-19": {"tested_on": "SNB-19", "assay": "Anticancer activity, SRB assay, CNS cell line SNB-19", "format": "cell-based, human", "conditions": "CNS SNB-19; 48 h continuous drug exposure; —^b means GI50 values not attained at the concentrations used", "protocol": "as §1, §2"}, "MDA-MB-435": {"tested_on": "MDA-MB-435", "assay": "Anticancer activity, SRB assay, melanoma cell line MDA-MB-435", "format": "cell-based, human", "conditions": "Melanoma MDA-MB-435; 48 h continuous drug exposure; —^b means GI50 values not attained at the concentrations used", "protocol": "as §1, §2"}, "SF-268": {"tested_on": "SF-268", "assay": "Anticancer activity, SRB assay, CNS cell line SF-268", "format": "cell-based, human", "conditions": "CNS SF-268; 48 h continuous drug exposure; —^b means GI50 values not attained at the concentrations used", "protocol": "as §1, §2"}, "U251": {"tested_on": "U251", "assay": "Anticancer activity, SRB assay, CNS cell line U251", "format": "cell-based", "conditions": "Homo sapiens, U-251, 48 h continuous drug exposure, read-out: Growth Inhibition GI50", "protocol": "as §1, §2"}, "PC-3": {"tested_on": "PC-3", "assay": "Anticancer activity, SRB assay, prostate cell line PC-3", "format": "cell-based, human", "conditions": "Prostate PC-3; 48 h continuous drug exposure; —^b means GI50 values not attained at the concentrations used", "protocol": "as §1, §2"}, "[2]": {"tested_on": "six CNS cancer cell line (SF-268, SF-295, SF-539, SNB-19, SNB-75 and U251)", "assay": "Anticancer activity, SRB assay, CNS panel", "format": "cell-based, human", "protocol": "as §1, §2"}, "786-0": {"tested_on": "786-0", "assay": "Anticancer activity, SRB assay, renal cell line 786-0", "format": "cell-based, human", "conditions": "Renal 786-0; 48 h continuous drug exposure; —^b means GI50 values not attained at the concentrations used", "protocol": "as §1, §2"}, "NCI-H322M": {"tested_on": "NCI-H322M", "assay": "Anticancer activity, SRB assay, non-small lung cell line NCI-H322M", "format": "cell-based, human", "conditions": "Non-small lung NCl-H322M; 48 h continuous drug exposure; —^b means GI50 values not attained at the concentrations used", "protocol": "as §1, §2"}, "MALME-3M": {"tested_on": "MALME-3M", "assay": "Anticancer activity, SRB assay, melanoma cell line MALME-3M", "format": "cell-based", "conditions": "Homo sapiens; Melanoma MALME-3M; 48 h continuous drug exposure; read-out: Growth Inhibition GI50", "protocol": "as §1, §2"}, "RPMI-8226": {"tested_on": "RPMI-8226", "assay": "Anticancer activity, SRB assay, leukemia cell line RPMI-8226", "format": "cell-based", "conditions": "Homo sapiens; Leukemia RPMI-8226; 48 h continuous drug exposure; read-out: Growth Inhibition GI50", "protocol": "as §1, §2"}, "SR": {"tested_on": "SR", "assay": "Anticancer activity, SRB assay, leukemia cell line SR", "format": "cell-based", "conditions": "Homo sapiens, 48 h continuous drug exposure, read-out: Growth Inhibition GI50", "protocol": "as §1, §2"}, "T-47D": {"tested_on": "T-47D", "assay": "Anticancer activity, SRB assay, breast cell line T-47D", "format": "cell-based, human", "conditions": "Breast T-47D; 48 h continuous drug exposure; —^b means GI50 values not attained at the concentrations used", "protocol": "as §1, §2"}, "HS 578T": {"tested_on": "HS 578T", "assay": "Anticancer activity, SRB assay, breast cell line HS 578T", "format": "cell-based, human", "conditions": "Breast HS 578T; 48 h continuous drug exposure; —^b means GI50 values not attained at the concentrations used", "protocol": "as §1, §2"}, "NCI-H226": {"tested_on": "NCI-H226", "assay": "Anticancer activity, SRB assay, non-small lung cell line NCI-H226", "format": "cell-based, human", "conditions": "Non-small lung NCl-H226; 48 h continuous drug exposure; —^b means GI50 values not attained at the concentrations used", "protocol": "as §1, §2"}, "LOX IMVI": {"tested_on": "LOX IMVI", "assay": "Anticancer activity, SRB assay, melanoma cell line LOX IMVI", "format": "cell-based", "conditions": "Homo sapiens, 48 h continuous drug exposure, read-out: Growth Inhibition GI50", "protocol": "as §1, §2"}, "[3]": {"tested_on": "seven ovarian cancer cell lines (IGROV1, OVCAR-3, OVCAR-4, OVCAR-5, OVCAR-8, NCI/ADR-RES and SK-OV-3)", "assay": "Anticancer activity, SRB assay, ovarian panel", "format": "cell-based, human", "protocol": "as §1, §2"}, "HT29": {"tested_on": "HT29", "assay": "Anticancer activity, SRB assay, colon cell line HT29", "format": "cell-based", "conditions": "Homo sapiens, HT-29, 48 h continuous drug exposure, read-out: Growth Inhibition GI50", "protocol": "as §1, §2"}, "[4]": {"assay": "Anticancer activity, SRB assay, non-small cell lung panel", "format": "cell-based, human", "conditions": "Homo sapiens; nine non-small cell lung cancer cell lines; exposure period of at least 48 h; read-out: GI50 (range over the panel)", "protocol": "as §1, §2"}, "[5]": {"tested_on": "nine non-small cell lung cancer cell lines (A549/ATCC, EKVX, HOP-62, HOP-92, NCI-H226, NCI-H23, NCI-H322M, NCI-H460 and NCI-H522)", "assay": "Anticancer activity, SRB assay, non-small cell lung panel", "format": "cell-based, human", "conditions": "Non-small cell lung", "protocol": "as §1, §2"}, "UO-31": {"tested_on": "UO-31", "assay": "Anticancer activity, SRB assay, renal cell line UO-31", "format": "cell-based, human", "conditions": "Renal UO-31; 48 h continuous drug exposure; —^b means GI50 values not attained at the concentrations used", "protocol": "as §1, §2"}, "SK-MEL-5": {"tested_on": "SK-MEL-5", "assay": "Anticancer activity, SRB assay, melanoma cell line SK-MEL-5", "format": "cell-based", "conditions": "Homo sapiens; Melanoma SK-MEL-5; 48 h continuous drug exposure; read-out: Growth Inhibition GI50", "protocol": "as §1, §2"}, "[6]": {"tested_on": "sixty human cancer cell lines derived from nine cancer types", "assay": "Anticancer activity against sixty human cancer cell lines", "format": "cell-based", "protocol": "as §1, §2"}}}
{"smiles": "COc1ccc2cc(C#Cc3ccc(-n4c(/C=C/c5cc(OC)c(OC)c(OC)c5)nc5ccccc5c4=O)c(C)c3)ccc2c1", "note": "[Compound 6l, (E)-3-(4-((6-Methoxynaphthalen-2-yl)ethynyl)-2-methylphenyl)-2-(3,4,5-trimethoxystyryl)quinazolin-4(3H)-one]", "values": [{"measurement": "GI50", "setting": "HCT-15", "value": 1220, "unit": "nM"}, {"measurement": "mean graph midpoint values (MG_MID) of log10 TGI (Log10TGI50)", "setting": "[1]; Colon, log value of concentration of the compound resulting in total inhibition of net cell growth", "value": ">−4.00"}, {"measurement": "mean graph midpoint values (MG_MID) of Log10LC50", "setting": "[1]; Colon, log value of the concentration of compounds leading to 50% net cell death", "value": ">−4.00"}, {"measurement": "mean graph midpoint values (MG_MID) of Log10GI50", "setting": "[1]; Colon, log values of concentration in mol/L causing 50% inhibition of net cell growth", "value": "−5.16", "unit": "mol/L"}, {"measurement": "GI50", "setting": "[1]; Homo sapiens, seven colon cancer cell line, exposure period of at least 48 h, read-out: GI50 (range over the panel)", "value": "1.22 to 17.2", "unit": "µM"}, {"measurement": "GI50", "setting": "UACC-257", "value": 6.24, "unit": "µM"}, {"measurement": "Growth Inhibition GI50", "setting": "NCI-H522", "value": "—^b"}, {"measurement": "Growth Inhibition GI50", "setting": "SNB-19", "value": "—^b"}, {"measurement": "Growth Inhibition GI50", "setting": "MDA-MB-435", "value": "—^b"}, {"measurement": "Growth Inhibition GI50", "setting": "SF-268", "value": "—^b"}, {"measurement": "GI50", "setting": "U251", "value": 7.4, "unit": "µM"}, {"measurement": "Growth Inhibition GI50", "setting": "PC-3", "value": "—^b"}, {"measurement": "mean graph midpoint values (MG_MID) of log10 TGI (Log10TGI50)", "setting": "[2]; CNS, log value of concentration of the compound resulting in total inhibition of net cell growth", "value": ">−4.00"}, {"measurement": "mean graph midpoint values (MG_MID) of Log10LC50", "setting": "[2]; CNS, log value of the concentration of compounds leading to 50% net cell death", "value": ">−4.00"}, {"measurement": "mean graph midpoint values (MG_MID) of Log10GI50", "setting": "[2]; CNS, log values of concentration in mol/L causing 50% inhibition of net cell growth", "value": "−4.18", "unit": "mol/L"}, {"measurement": "GI50", "setting": "[2]; Homo sapiens, six CNS cancer cell line, exposure period of at least 48 h, read-out: GI50 (range over the panel)", "value": 7.4, "unit": "µM"}, {"measurement": "Growth Inhibition GI50", "setting": "786-0", "value": "—^b"}, {"measurement": "Growth Inhibition GI50", "setting": "NCI-H322M", "value": "—^b"}, {"measurement": "GI50", "setting": "MALME-3M", "value": 42.6, "unit": "µM"}, {"measurement": "GI50", "setting": "RPMI-8226", "value": 821, "unit": "nM"}, {"measurement": "GI50", "setting": "SR", "value": 395, "unit": "nM"}, {"measurement": "Growth Inhibition GI50", "setting": "T-47D", "value": "—^b"}, {"measurement": "Growth Inhibition GI50", "setting": "HS 578T", "value": "—^b"}, {"measurement": "Growth Inhibition GI50", "setting": "NCI-H226", "value": "—^b"}, {"measurement": "GI50", "setting": "LOX IMVI", "value": 5.96, "unit": "µM"}, {"measurement": "GI50", "setting": "[3]; Homo sapiens, seven ovarian cancer cell lines, exposure period of at least 48 h, read-out: GI50 (range over the panel)", "value": 19.3, "unit": "µM"}, {"measurement": "mean graph midpoint values (MG_MID) of log10 TGI (Log10TGI50)", "setting": "[3]; Ovarian, log value of concentration of the compound resulting in total inhibition of net cell growth", "value": ">−4.00"}, {"measurement": "mean graph midpoint values (MG_MID) of Log10LC50", "setting": "[3]; Ovarian, log value of the concentration of compounds leading to 50% net cell death", "value": ">−4.00"}, {"measurement": "mean graph midpoint values (MG_MID) of Log10GI50", "setting": "[3]; Ovarian, log values of concentration in mol/L causing 50% inhibition of net cell growth", "value": "−4.10", "unit": "mol/L"}, {"measurement": "GI50", "setting": "HT29", "value": 3.41, "unit": "µM"}, {"measurement": "GI50", "setting": "[4]", "value": "2.48 to 40.5", "unit": "µM"}, {"measurement": "mean graph midpoint values (MG_MID) of log10 TGI (Log10TGI50)", "setting": "[5]; log value of concentration of the compound resulting in total inhibition of net cell growth", "value": ">−4.00"}, {"measurement": "mean graph midpoint values (MG_MID) of Log10LC50", "setting": "[5]; log value of the concentration of compounds leading to 50% net cell death", "value": ">−4.00"}, {"measurement": "mean graph midpoint values (MG_MID) of Log10GI50", "setting": "[5]; log values of concentration in mol/L causing 50% inhibition of net cell growth", "value": "−4.32", "unit": "mol/L"}, {"measurement": "Growth Inhibition GI50", "setting": "UO-31", "value": "—^b"}, {"measurement": "GI50", "setting": "SK-MEL-5", "value": 1850, "unit": "nM"}, {"measurement": "in vitro anticancer activity (in words)", "setting": "[6]", "value": "exhibiting an in vitro anticancer activity"}]}
